Data from the supplement of paper PMC11061612.

Tests used:
[1] = test system: FU-OV-1 (Ovarian Carcinoma); assay: combination Emax (second highest fraction inhibited in the dose matrix, 72 h); higher = more inhibition; extreme values may be limits of the assay
Summary of the method: (§1)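 Cell lines grown in DMEM/F12 or RPMI with 10% FBS were plated in 1536-well plates and held 24 hours at 37°C, 5% CO2 before 72 hours of exposure to two-drug dose matrices, with DMSO typically at 0.2%. CellTiter-Glo 2.0 luminescence gave viability, which was converted to inhibition. Vehicle wells were set to 0 and blank wells to 1. Combination Emax is the second-highest inhibition in the matrix, and Bliss excess is the observed combination effect minus the expected EA + EB − EA·EB, where EA and EB are the single-agent effects.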

MCF7 (Breast Carcinoma) = assay: Bliss excess, mean over the matrix (fraction); higher = more synergy
Summary of the method: as §1

[2] = test system: SK-LMS-1 (Other Solid Carcinomas); assay: as above
Summary of the method: as §1

[3] = test system: FU-OV-1 (Ovarian Carcinoma); assay: as above
Summary of the method: as §1

[4] = test system: DOK (Oral Cavity Carcinoma); assay: as above
Summary of the method: as §1

[5] = test system: HCC1143 (Breast Carcinoma); assay: as above
Summary of the method: as §1

[6] = test system: YT (Other Blood Carcinomas); assay: as above
Summary of the method: as §1

D-392MG (Glioblastoma) = assay: as above
Summary of the method: as §1

[7] = test system: HLE (Hepatocellular Carcinoma); assay: as above
Summary of the method: as §1

Saos-2 (Osteosarcoma) = assay: as above
Summary of the method: as §1

[8] = test system: CAL-39 (Other Solid Carcinomas); assay: as above
Summary of the method: as §1

[9] = test system: KG-1 (Acute Myeloid Leukemia); assay: as above
Summary of the method: as §1

[10] = test system: PA-TU-8902 (Pancreatic Carcinoma); assay: as above
Summary of the method: as §1

SK-MEL-1 (Melanoma) = assay: as above
Summary of the method: as §1

[11] = test system: TC-YIK (Other Solid Carcinomas); assay: combination Emax (second highest fraction inhibited in the dose matrix, 72 h); higher = more inhibition; extreme values may be limits of the assay
Summary of the method: as §1

[12] = test system: TC-YIK (Other Solid Carcinomas); assay: Bliss excess, mean over the matrix (fraction); higher = more synergy
Summary of the method: as §1
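Wherever Bliss excess, mean over the matrix is given: after 72 h of two-drug dosing.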

SMILES | combination Emax [1] | Bliss excess (MCF7 (Breast Carcinoma)) | Bliss excess [2] | Bliss excess [3] | Bliss excess [4] | Bliss excess [5] | Bliss excess [6] | Bliss excess (D-392MG (Glioblastoma)) | Bliss excess [7] | Bliss excess (Saos-2 (Osteosarcoma)) | Bliss excess [8] | Bliss excess [9] | Bliss excess [10] | Bliss excess (SK-MEL-1 (Melanoma)) | combination Emax [11] | Bliss excess [12]
CN(CCO)CC[C@H](CSc1ccccc1)Nc1ccc(S(=O)(=O)NC(=O)c2ccc(N3CCC([C@@H](O)c4ccccc4-c4ccc(Cl)cc4)CC3)cc2)cc1S(=O)(=O)C(F)(F)F [AZD4320] + C[C@@H](Nc1cc(F)cc(F)c1)c1cc(C(=O)N(C)C)cc2c(=O)cc(N3CCOCC3)oc12 [AZD8186] (first compound max 1 µM, 7x7, partner max 3 µM) | 0.558 | 0.0057 | 0.0304 | -0.0284 | -0.0195 | 0.0263 | 0.0327 | -0.104 | -0.0428 | -0.0258 | 0.0175 | 0.066 | -0.0139 | -0.0523 | – | –
CN(CCO)CC[C@H](CSc1ccccc1)Nc1ccc(S(=O)(=O)NC(=O)c2ccc(N3CCC([C@@H](O)c4ccccc4-c4ccc(Cl)cc4)CC3)cc2)cc1S(=O)(=O)C(F)(F)F [AZD4320] + Cn1cnc2c(F)c(Nc3ccc(Br)cc3Cl)c(C(=O)NOCCO)cc21 [Selumetinib] (first compound max 1 µM, 7x7, partner max 3 µM) | 0.619 | 0.0377 | 0.0293 | 0.0354 | -0.0003 | 0.0112 | -0.0834 | -0.0474 | -0.0142 | -0.0016 | 0.0039 | 0.0452 | 0.0696 | 0.0228 | – | –
Cc1nc(Nc2ncc(C(=O)Nc3c(C)cccc3Cl)s2)cc(N2CCN(CCO)CC2)n1 [Dasatinib] + CC(=O)Nc1cccc(-n2c(=O)n(C3CC3)c(=O)c3c(Nc4ccc(I)cc4F)n(C)c(=O)c(C)c32)c1 [Trametinib] (first compound max 2 µM, 7x7, partner max 1 µM) | – | -0.0601 | -0.0457 | – | 0.0288 | 0.0293 | -0.0521 | 0.0155 | 0.0283 | 0.0164 | 0.0171 | 0.0659 | 0.0404 | -0.0852 | 0.638 | 0.0746
CS(=O)(=O)CCNCc1ccc(-c2ccc3ncnc(Nc4ccc(OCc5cccc(F)c5)c(Cl)c4)c3c2)o1 [Lapatinib] + Cn1cnc2c(F)c(Nc3ccc(Br)cc3Cl)c(C(=O)NOCCO)cc21 [Selumetinib] (first compound max 10 µM, 7x7, partner max 10 µM) | 0.55 | – | 0.0047 | -0.0698 | -0.113 | – | 0.0147 | -0.0383 | 0.0068 | 0.0251 | -0.0923 | – | – | -0.0654 | 0.531 | 0.0665
CS(=O)(=O)CCNCc1ccc(-c2ccc3ncnc(Nc4ccc(OCc5cccc(F)c5)c(Cl)c4)c3c2)o1 [Lapatinib] + NC1(c2ccc(-c3nc4ccn5c(=O)[nH]nc5c4cc3-c3ccccc3)cc2)CCC1 [MK-2206] (first compound max 10 µM, 7x7, partner max 10 µM) | 0.751 | -0.0702 | 0.0031 | 0.0239 | 0.0212 | -0.0213 | -0.0321 | -0.0411 | -0.0136 | -0.0026 | -0.0006 | – | -0.0237 | -0.0408 | 0.944 | -0.014
COc1cccc(OCCCN)c1-c1cc(Nc2cnc(C#N)cn2)n[nH]1 [Prexasertib] + CCc1c2c(nc3ccc(O)cc13)-c1cc3c(c(=O)n1C2)COC(=O)[C@]3(O)CC [SN-38] (first compound max 1 µM, 7x7, partner max 0.3 µM) | 0.806 | -0.0081 | -0.0239 | 0.0846 | 0.0242 | 0.0452 | -0.0527 | -0.11 | -0.0359 | -0.0064 | -0.0308 | -0.0454 | 0.049 | -0.0593 | – | –
Cc1nc(-c2cn3c(n2)-c2ccc(-c4cnn(C(C)(C)C(N)=O)c4)cc2OCC3)n(C(C)C)n1 [Taselisib] + O=C(Nc1ccc2[nH]nc(-c3ccncc3)c2c1)[C@@H]1CCN(CC(=O)N2CCN(c3ccc(-c4ncccn4)cc3)CC2)C1 [SCH772984] (first compound max 10 µM, 7x7, partner max 5 µM) | 0.727 | – | 0.106 | -0.0373 | -0.0218 | – | -0.0084 | 0.0272 | 0.0366 | 0.0665 | 0.0609 | – | – | 0.0839 | 0.661 | 0.0859
CC1(C)CCC(CN2CCN(c3ccc(C(=O)NS(=O)(=O)c4ccc(NCC5CCOCC5)c([N+](=O)[O-])c4)c(Oc4cnc5[nH]ccc5c4)c3)CC2)=C(c2ccc(Cl)cc2)C1 [Venetoclax] + C1CN(CCC1(C(=O)N[C@@H](CCO)C2=CC=C(C=C2)Cl)N)C3=NC=NC4=C3C=CN4 [Capivasertib] (first compound max 1 µM, 7x7, partner max 3 µM) | 0.151 | 0.0076 | -0.0485 | -0.0783 | -0.0532 | -0.0004 | 0.0073 | -0.0437 | -0.0132 | -0.029 | -0.0183 | 0.041 | -0.0752 | -0.0561 | – | –
CC1(C)CCC(CN2CCN(c3ccc(C(=O)NS(=O)(=O)c4ccc(NCC5CCOCC5)c([N+](=O)[O-])c4)c(Oc4cnc5[nH]ccc5c4)c3)CC2)=C(c2ccc(Cl)cc2)C1 [Venetoclax] + C=CCn1c(=O)c2cnc(Nc3ccc(N4CCN(C)CC4)cc3)nc2n1-c1cccc(C(C)(C)O)n1 [AZD1775] (first compound max 1 µM, partner max 1 µM) | 0.612 | -0.0227 | -0.0306 | -0.0599 | -0.0582 | -0.0192 | -0.0039 | 0.0593 | -0.0648 | 0.0339 | -0.0308 | 0.201 | -0.0622 | -0.0539 | – | –
CC1(C)CCC(CN2CCN(c3ccc(C(=O)NS(=O)(=O)c4ccc(NCC5CCOCC5)c([N+](=O)[O-])c4)c(Oc4cnc5[nH]ccc5c4)c3)CC2)=C(c2ccc(Cl)cc2)C1 [Venetoclax] + CCN(CCO)CCCOc1ccc2c(Nc3cc(CC(=O)Nc4cccc(F)c4)[nH]n3)ncnc2c1 [AZD2811] (first compound max 1 µM, 7x7, partner max 1 µM) | 0.238 | 0.0142 | -0.0616 | -0.0705 | -0.0249 | 0.0005 | -0.0328 | -0.0351 | 0.005 | 0.0727 | -0.0113 | 0.0766 | -0.0417 | -0.022 | – | –
CC1(C)CCC(CN2CCN(c3ccc(C(=O)NS(=O)(=O)c4ccc(NCC5CCOCC5)c([N+](=O)[O-])c4)c(Oc4cnc5[nH]ccc5c4)c3)CC2)=C(c2ccc(Cl)cc2)C1 [Venetoclax] + CN(C)CCCOc1ccc(-c2ccc3ncc4c(c3c2)n(C2CCOCC2)c(=O)n4C)cn1 [AZD0156] (first compound max 1 µM, 7x7, partner max 1 µM) | 0.291 | -0.0152 | 0.001 | -0.0223 | -0.0184 | -0.0051 | 0.0204 | -0.0225 | -0.0463 | -0.0364 | -0.0214 | 0.0741 | -0.0507 | -0.0397 | – | –
CC1(C)CCC(CN2CCN(c3ccc(C(=O)NS(=O)(=O)c4ccc(NCC5CCOCC5)c([N+](=O)[O-])c4)c(Oc4cnc5[nH]ccc5c4)c3)CC2)=C(c2ccc(Cl)cc2)C1 [Venetoclax] + COc1cc(Nc2ncc3c(n2)-c2ccc(Cl)cc2C(c2c(F)cccc2OC)=NC3)ccc1C(=O)O [Alisertib] (first compound max 1 µM, 7x7, partner max 10 µM) | 0.665 | 0.0079 | 0.0215 | -0.0614 | 0.0114 | 0.0244 | 0.1 | -0.042 | 0.0066 | 0.047 | -0.0989 | 0.273 | -0.0664 | 0.0439 | – | –
CC1(C)CCC(CN2CCN(c3ccc(C(=O)NS(=O)(=O)c4ccc(NCC5CCOCC5)c([N+](=O)[O-])c4)c(Oc4cnc5[nH]ccc5c4)c3)CC2)=C(c2ccc(Cl)cc2)C1 [Venetoclax] + C[C@@H]1COCCN1C2=NC(=NC(=C2)C3(CC3)[S@](=N)(=O)C)C4=C5C=CNC5=NC=C4 [AZD6738] (first compound max 1 µM, 7x7, partner max 10 µM) | 0.485 | 0.0003 | -0.0884 | -0.0444 | -0.0833 | -0.0573 | 0.0174 | -0.0807 | -0.063 | -0.0316 | -0.026 | 0.075 | -0.0236 | -0.027 | – | –
CC1(C)CCC(CN2CCN(c3ccc(C(=O)NS(=O)(=O)c4ccc(NCC5CCOCC5)c([N+](=O)[O-])c4)c(Oc4cnc5[nH]ccc5c4)c3)CC2)=C(c2ccc(Cl)cc2)C1 [Venetoclax] + C[C@@H](Nc1cc(F)cc(F)c1)c1cc(C(=O)N(C)C)cc2c(=O)cc(N3CCOCC3)oc12 [AZD8186] (first compound max 1 µM, 7x7, partner max 3 µM) | 0.412 | -0.0499 | -0.014 | -0.0594 | -0.0548 | -0.0141 | 0.0317 | -0.061 | -0.0364 | 0 | -0.106 | 0.114 | -0.0453 | -0.0239 | – | –
CC1(C)CCC(CN2CCN(c3ccc(C(=O)NS(=O)(=O)c4ccc(NCC5CCOCC5)c([N+](=O)[O-])c4)c(Oc4cnc5[nH]ccc5c4)c3)CC2)=C(c2ccc(Cl)cc2)C1 [Venetoclax] + Cc1cc2ncnn2cc1Nc1ncc2c(n1)n(C1CCOCC1)c(=O)n2C [AZD7648] (first compound max 1 µM, 7x7, partner max 10 µM) | 0.358 | -0.0267 | -0.0292 | -0.036 | -0.0208 | 0.0481 | -0.0667 | -0.0374 | -0.024 | -0.0075 | -0.104 | 0.0848 | -0.0715 | -0.0242 | – | –
CC1(C)CCC(CN2CCN(c3ccc(C(=O)NS(=O)(=O)c4ccc(NCC5CCOCC5)c([N+](=O)[O-])c4)c(Oc4cnc5[nH]ccc5c4)c3)CC2)=C(c2ccc(Cl)cc2)C1 [Venetoclax] + Cn1cnc2c(F)c(Nc3ccc(Br)cc3Cl)c(C(=O)NOCCO)cc21 [Selumetinib] (first compound max 1 µM, 7x7, partner max 3 µM) | 0.445 | -0.058 | -0.029 | -0.0929 | -0.0258 | -0.0093 | 0.0297 | -0.0331 | -0.0267 | -0.0057 | 0.0138 | 0.0735 | -0.0178 | -0.0332 | – | –
